Read-outs that look alike come from different tables or passages of the source. Non-standard residues stand in square brackets, D forms with d. No end group written: not given here.
Experiments:
[1] = system: polyclonal CD4+CD25− cells; experiment: bystander suppression assay with CD4+CD25− cells from EAE animals; type: cell-based, mouse; settings: 20 μg SC on aluminium hydroxide, three injections
Procedure: Groups of C57BL/6 mice are immunised subcutaneously (20 μg) with peptide (CHGS […] [SEQ ID. NO: 32], which contains the sequence motif C-X(2)-S) or control peptide ([…] [SEQ ID. NO: 33]) adsorbed onto aluminium hydroxide, Three injections are performed at 2-week intervals. Ten days after the last immunisation, mice are sacrificed and CD4+ T cells (2×10^6 cells) are prepared from the spleen using magnetic beads. CD4+ T cells are then stimulated in vitro by the MOG T cell epitope (20 μg/ml) presented by adherent spleen cells (2×10^6 cells).
After four re-stimulations, a T cell line is tested in a bystander suppression assay with, as target cells, polyclonal CD4+CD25− cells obtained from animals in which EAE (Experimental autoimmune encephalomyelitis) was effective.

[2] = system: C57BL/6 mice; experiment: prevention of multiple sclerosis by peptide immunisation; type: in vivo, mouse; settings: 5 injections 20 μg in IFA at 14 days interval before disease induction
Procedure: In the model group, 3 C57BL/6 mice received, at day 0, SC injection of 100 μg MOG peptide/400 μg Mycobacterium butyricum in CFA and ip injection of 300 ng Bortetella pertussis in NaCl. At day +2, a second injection of B. pertussis was given.
In the prevention group, 5 C57BL/6 mice are immunised by 5 injections with 20 μg CSMOG peptide (CHGS […] [SEQ ID. NO: 32]), which contains the sequence motif C-X(2)-S, in IFA at 14 days interval before disease induction as in the model group. Control experiments are performed with the peptide [SEQ ID. NO: 33] lacking the motif at its N-terminus.
Scores were established as 0: no disease, 1: limp tail, 2: limp tail and loss of weight higher than 10%, 3: partial paralysis of hind limbs.

[3] = system: BALB/c mice; settings: mouse, in vivo
[4] = system: WEHI cells; experiment: Wehi cell apoptosis by the G121 regulatory T cell clone with various forms of peptide; type: cell-based, mouse
[5] = system: spleen CD4+ T cells; settings: mouse, in vivo, ip
[6] = system: G221N; experiment: peptide processing assay with effector T cell clone G221N; type: cell-based, mouse
[7] = system: WEHI cells; experiment: apoptosis of peptide-loaded WEHI cells by cytolytic T cell clones, with inhibitors; type: cell-based, mouse; settings: p21-35 loaded WEHI cells and a cytolytic T cell clone
Procedure: For inhibition of GZ-B activity, Z-AAD-CMK (Calbiochem) or 3,4-dichloroiso-coumarin (DCIC) (SIGMA) were added at indicated concentrations during all the co-culture period.
Experiments were carried out with p21-35-loaded CD11c dendritic (FIG. 13b: left panel) or WEHI cells (FIG. 13b: right panel). Upon incubation with R3TB7 virtually all dendritic cells (DC) or Wehi cells were induced into apoptosis as measured by caspase 3 activation.
Apoptosis can be induced by either the Fas-FasL pathway or by secretion of cytotoxic granules containing granzymes. Attempts were made to inhibit each of these pathways. Addition of increasing concentrations of an antibody towards FasL, or of granzyme B inhibitors, to a cell culture containing p21-35 loaded WEHI cells and a cytolytic T cell clone, increased the number of surviving WEHI cells in a dose-dependent manner (FIG. 13c). In a number of experiments it was shown that the anti-FasL antibody restored up to 80% of WEHI cell survival.
To further ascertain that APC lysis required direct contact with cytolytic T cells through MHC class II presentation of p21-35, an experiment was carried out in which two identical populations of Wehi cells were loaded with either p21-35 or with an irrelevant peptide (p71-85). These two populations could be distinguished by differential CFSE labelling. It can be seen from FIG. 13e that, while WEHI cells presenting p21-35 were fully lysed, only 40% of p71-85-loaded cells were affected.

[8] = system: CD4+CD25(−) T cells; experiment: bystander suppression of anti-CD3 activated CD4+CD25(−) T cells; type: cell-based, mouse; settings: 72 h, 2 concentrations (2mM, 4 mM)
Procedure: Bystander suppression assays. Target CD4+CD25− T cells and T helper clones were labelled with 125nM CFSE (Molecular Probes) for 15 minutes in PBS at 37° C. The reaction was stopped by washing the cells with PBS containing 30% FBS. These cells (3×10^5) were cocultured with 10^5 cytotoxic CD4+ T cell clones and cell depleted splenocytes with 1 μg/ml anti-CD3 antibody (eBioscience), For suppression of T helper clones, 10^5 cells were co-cultured with the same number of cytotoxic cells and T cell depleted splenocytes. After 48 h or 72 hours, cells were collected and analysed by flow cytometry.
First, the capacity of Tregs was assayed to suppress the proliferation of CD4+CD25(−) T cells after anti-CD3 activation in the presence of antigen-presenting cells. […] This effect was even more pronounced at 72 h for the second T cell clone (lower middle panel). […] The control experiment in which Treg was replaced by an identical number of unlabeled CD4+CD25(−) T cells (right panels) eliminated a possible artefact related to variable numbers of total cells in the culture medium.
Next, the kinetics of suppression were analysed. In the experiments shown in FIG. 14b, it can be seen that 48 and 70% of CFSE-labelled CD4+CD25(−) T cells express Annexin V after 18 and 24 h co-incubation with a cytolytic Treg (R3TB7), respectively, using the same assay system as in FIG. 14a. […]

[9] = system: CD4+ T cell; experiment: CD4+ T cell proliferation elicited by single amino acid p21-35 mutants (IP immunisation in alum); settings: mouse, in vivo
Procedure: Based on findings showing that regulation can be more readily achieved with analogues of T cell epitopes, the capacity of various single amino acid p21-35 mutants to elicit CD4+ T cell after IP immunisation in alum was determined. […] The mutated form of mp21-35 (mp21-35Asn) was therefore use in the remainder of the experiments in this Example.

[10] = system: MHC II cleft; experiment: affinity for the MHC II cleft; type: binding
[11] = system: polyclonal CD4 cells; experiment: apoptosis of polyclonal CD4 cells from peptide 524-543 immunised NOD mice; type: cell-based, mouse; settings: APC loaded with peptide 524-543
Description: NOD mice are immunised with peptide containing the thioredoxin consensus sequence in IFA (incomplete Freund adjuvans) from the age of 2 weeks. T cells are expanded in vitro to generate clones with regulatory properties.
The table in FIG. 23 represents the percentage of double positive cells (dead cells) after substraction of background values obtained without the regulatory population.

[12] = system: NOD mice; experiment: spontaneous insulin-dependent diabetes in NOD mice, GAD65 derived peptide; type: in vivo, mouse
Description: Non-obese diabetes (NOD) mice constitutes a suitable animal model for spontaneous insulin-dependent diabetes.
Adoptive transfer of Treg at the age of 2 weeks in NOD mice, namely before the onset of insulitis (3 weeks of age) is shown to fully prevent the onset of diabetes.
Direct immunisation of NOD mice with the peptide CRLC […] [SEQ ID.
Immunisation with peptide CRLC […] [SEQ ID.

[13] = system: dendritic cells; type: cell-based
[14] = system: Patients; experiment: patients with birch pollen and apple allergy treated with peptide; type: in vivo, human; settings: 3 SC injections
Description: Patients presenting with allergic symptoms upon exposure to birch pollen together with an oro-pharyngeal allergy to ingestion of apple and treated by 3 SC injections of peptide CGPC […] [SEQ ID.

Compound: CHGS YRSPFSRVVHLYR (CHGSYRSPFSRVVHLYR; reducing motif fused to MOG (Myelin Oligodendrocyte Glycoprotein) peptide) [SEQ ID. NO: 32]
- capacity of T cell line from immunised animals to induce death in target cells [1]: have the capacity to induce death in target cells
- development of the syndrome (clinical score) [2]: completely abolishes the development of the syndrome

Compound: QYIKANSKFIGITELGGCHGSEPCIIHRGKPF [mp21-35]
- suppression of airway inflammation and hyperreactivity [3]: even more effective in suppressing airway inflammation and hyperreactivity
- efficiency in inducing Wehi cell apoptosis in the presence of the G121 Treg, as compared to p21-35 [4]: 100 fold
- Der p 2-induced proliferation of spleen CD4+ T cells [5]: significant reduction
- requirement for internalisation, fusion with and acidification of late endosomes [6]: required internalisation into antigen-presenting cells
- requirement for peptide processing [6]: had to be processed for efficient presentation

Compound: O=C(O)CN(CCOCCOCCN(CC(=O)O)CC(=O)O)CC(=O)O [EGTA]
- restoration of WEHI cell survival [7]: only partial restoration of Wehi cell survival
- inhibition of the suppression of bystander T cells [8]: Basically no inhibition

Compound: IIe28Asn: IIe28Asn substitution of Der p 2 peptide p21-35 (CHGSEPCNIHRGKPF; UniProt P49278 38-52, looked up, fragment I28N)
- capacity to induce T cell proliferation [9]: only slightly reduced
- affinity for the MHC II cleft versus natural p21-35 [10]: lower affinity

Compound: CRLC KVAPVIKARMM (CRLCKVAPVIKARMM; modified fragment of glutamic acid decarboxylase (GAD65)) [SEQ ID. NO: 35]
- apoptosis induced by polyclonal cells from immunised mice [11]: induce apoptosis in polyclonal CD4 cells
- diabetes and insulitis, suppression by immunisation ([12]; after 15 weeks of age): suppress diabetes and insulitis
- diabetes and insulitis, prevention by direct immunisation ([12]; from the age of 2 weeks): fully prevent diabetes and lesions of insulitis

Compound: (CGPC)D-isomer LRAVESYLLAH ([dC]G[dP][dC]LRAVESYLLAH; cysteine pairing not given here) [SEQ ID. NO: 47]
- apoptosis of dendritic cells by CD4+ T cells of treated subjects ([13]; dendritic cells loaded with the Mal d 1 antigen): resulted in dendritic cell apoptosis
- apoptosis of dendritic cells by CD4+ T cells of treated subjects ([13]; dendritic cells presenting the Bet v 1 antigen, three SC injections of 50 μg on alum): induced apoptosis of dendritic cells presenting the Bet v 1 antigen
- reaction to pollen exposure or apple contact [14]: failed to react to either exposure to pollen or contact with apple
